Assay results reported in US20170313674A1, “BENZYLHYDROXIDE DERIVATIVES, PREPARATION THEREOF AND THERAPEUTIC USE THEREOF” (SANOFI, priority 2014, published 2017).
Like-named read-outs stand apart in the source and are kept apart here.

Tests used:
HIF-1a = assay: Western blot model: HIF1-a stabilization in Hep3b cells under hypoxia; assay type: cell-based; conditions: hypoxia 1% O2, 6 hours; for Western Blot (range of decrease of HIF1-a stabilization): class symbol
Description: Since it was sought to determine the efficacy of the compounds to inhibit HIF1a stabilization under hypoxia, the compounds according to the invention underwent biochemical studies in order to determine their capacity to decrease HIF stabilization in Hep3b cells under hypoxia (western blot model).
Hep3B cells are seeded at a rate of 300000 cells per well in 6-wells culture plate in 2 ml of MEM supplemented with glutamin (2 mM) and 10% FCS (foetal calf serum) and incubated at 37° C. in the presence of 5% CO2. The next day, the cells are placed in contact with the compound and an incubation under hypoxia at 1% O2 is carried out at 37° C. in 95% humidity and 5% CO2 in a sealed anaerobic workstation (Hypoxystation H35-Don Whitley—AES Chemunex) during 6 hours.
Cells were washed (PBS) and lysed in SDS sample buffer. Proteins (25 μg) were separated on 4-12% Bis-Tris gels and transferred onto polyvinylidene difluoride membranes (Millipore). Membranes were blotted with a mouse monoclonal antibody to HIF-1a (BD transduction) and a mouse monoclonal anti-βactin (Sigma). Immunoreactive bands were detected with a horse radish peroxydase (HRP) anti-mouse antibody (Sigma) by enhanced chemiluminescence (Promega).
The inhibitory activity of the compounds for their capacity to decrease HIF1-a stabilization in Hep3b under hypoxia is expressed as range of percentage relative to control with: […]

[1] = test system: mitochondrial ATP production on non-small cell lung carcinoma cell lines NCI-H460; assay: Mitochondrial ATP analysis (Cell Titer Glo) in NCI-H460 cells; assay type: cell-based; conditions: 1-hour incubation, with sodium iodoacetate (100 μM), concentration inhibiting 50% of mitochondrial ATP production, read-out: IC50 (mito ATP)
Description: In order to evaluate the inhibitory activity of the all compounds, an in vitro assay was developed which read out is directly linked to mitochondrial complex 1 inhibition. Since mitochondrial complex 1 contributes to the formation of membrane potential coupled to the mitochondrial ATP synthesis, complex 1 inhibition directly leads in cells to the inhibition of mitochondrial ATP production. Cellular ATP contents were measured in presence of either glycolysis inhibitor (sodium iodocetate) and/or mitochondrial inhibitors (F0F1-ATPase inhibitor: oligomycin or mitochondrial uncoupler: FCCP) to determine the ATP production part relying either on glycolytic or on mitochondrial metabolism.
Mitochondrial ATP Analysis
The compounds of the invention were evaluated for their ability to inhibit mitochondrial
ATP was measured using the Promega Cell Titer Glo kit and protocol. In summary, 1,000 cells were plated in 40 μL in a 384 well plate. 24 hours later, medium was replaced by 20 μl culture medium in presence of compounds: cells were treated in replicates of five with control (PBS), oligomycin A (10 μg/ml), FCCP (30 μM), or the compounds of the invention in dose effect both alone or in combination with sodium iodoacetate (100 μM). Following a 1-hour incubation, 20 μL of CellTtiter-glo™ reaction mix were added to each well for a final volume of 40 μL. Plates were then analyzed for luminescence with a Perkin Elmer EnVision. By comparing the different conditions, global ATP and percentages of both glycolytic and mitochondrial ATP were determined.
The mitochondrial ATP production was calculated as the remaining ATP under iodoacetate treatment minus basal ATP (ATP content under iodoacetate and oligomycin treatment). Inhibitory activity of the compounds on mitochondrial ATP in NCI-H460 cells is expressed as the concentration needed to inhibit 50% of mitochondrial ATP production (IC50, M).

| IC50 [1] | IC50 ([1]; Homo sapiens, NCI-H460, 1 h) | Compound | Western Blot (decrease of HIF1-a stabilization, percentage relative to control) (HIF-1a) | Western Blot (range of decrease of HIF1-a stabilization) (HIF-1a) |
| --- | --- | --- | --- | --- |
| 0.195 µM | – | COc1ccc(C(O)COc2ccc(-c3csc(-c4ccc(OCC(O)c5ccc(OC)c(OC)c5)cc4)n3)cc2)cc1OC (single isomer, unassigned) [Compound I-25, 1-(3,4-dimethoxyphenyl)-2-[4-[2-[4-[2-(3,4-dimethoxyphenyl)-2-hydroxy-ethoxy]phenyl]thiazol-4-yl]phenoxy]ethanol] | 41% | * (* represents a decrease of HIF-a stabilization between 30 to 50%) |
| 0.159 µM | – | COc1ccc(C(O)C(C)Oc2ccc(-c3csc(-c4ccc(OC(C)C(O)c5ccc(OC)c(OC)c5)cc4)n3)cc2)cc1OC (single isomer, unassigned) [Compound I-29, 1-(3,4-dimethoxyphenyl)-2-[4-[2-[4-[2-(3,4-dimethoxyphenyl)-2-hydroxy-1-methyl-ethoxy]phenyl]thiazol-4-yl]phenoxy]propan-1-ol] | 67% | ** (** represents a decrease of HIF-a stabilization between 50 to 70%) |
| 0.167 µM | – | COc1ccc(C(O)C(C)Oc2ccc(-c3csc(-c4ccc(OC(C)C(O)c5ccc(OC)c(OC)c5)cc4)n3)cc2)cc1OC (single isomer, unassigned) [Compound I-30, 1-(3,4-dimethoxyphenyl)-2-[4-[2-[4-[2-(3,4-dimethoxyphenyl)-2-hydroxy-1-methyl-ethoxy]phenyl]thiazol-4-yl]phenoxy]propan-1-ol] | 56% | ** (** represents a decrease of HIF-a stabilization between 50 to 70%) |
| 0.3 µM | – | COc1ccc(C(O)C(C)Oc2ccc(-c3csc(-c4ccc(OC(C)C(O)c5ccc(OC)c(OC)c5)cc4)n3)cc2)cc1OC (single isomer, unassigned) [Compound I-31, 1-(3,4-dimethoxyphenyl)-2-[4-[2-[4-[2-(3,4-dimethoxyphenyl)-2-hydroxy-1-methyl-ethoxy]phenyl]thiazol-4-yl]phenoxy]propan-1-ol] | 64% | ** (** represents a decrease of HIF-a stabilization between 50 to 70%) |
| 0.0476 µM | – | COc1ccc(C(O)C(C)Oc2ccc(-c3csc(-c4ccc(OC(C)C(O)c5ccc(OC)c(OC)c5)cc4)n3)cc2)cc1OC (single isomer, unassigned) [Compound I-32, 1-(3,4-dimethoxyphenyl)-2-[4-[2-[4-[2-(3,4-dimethoxyphenyl)-2-hydroxy-1-methyl-ethoxy]phenyl]thiazol-4-yl]phenoxy]propan-1-ol] | 45% | * (* represents a decrease of HIF-a stabilization between 30 to 50%) |
| 0.0301 µM | – | COc1ccc(C(O)C(C)Oc2ccc(-c3csc(-c4ccc(OC(C)C(O)c5ccc(OC)c(OC)c5)cc4)n3)cc2)cc1OC (single isomer, unassigned) [Compound I-33, 1-(3,4-dimethoxyphenyl)-2-[4-[2-[4-[2-(3,4-dimethoxyphenyl)-2-hydroxy-1-methyl-ethoxy]phenyl]thiazol-4-yl]phenoxy]propan-1-ol] | 52% | * (* represents a decrease of HIF-a stabilization between 30 to 50%) |
| – | 0.0943 µM | COc1ccc(C(O)C(C)(C)Oc2ccc(-c3noc(-c4ccc(OC(C)(C)C(O)c5ccc(OC)c(OC)c5)cc4)n3)cc2)cc1OC (single isomer, unassigned) [Compound I-37, 1-(3,4-dimethoxyphenyl)-2-[4-[5-[4-[2-(3,4-dimethoxyphenyl)-2-hydroxy-1,1-dimethyl-ethoxy]phenyl]-1,2,4-oxadiazol-3-yl]phenoxy]-2-methyl-propan-1-ol] | 74% | *** (*** represents a decrease of HIF-a stabilization higher than 70%) |
| – | 0.037 µM | COc1ccc(C(O)C(C)(C)Oc2ccc(-c3nsc(-c4ccc(OC(C)(C)C(O)c5ccc(OC)c(OC)c5)cc4)n3)cc2)cc1OC (single isomer, unassigned) [Compound I-43, 1-(3,4-dimethoxyphenyl)-2-[4-[5-[4-[2-(3,4-dimethoxyphenyl)-2-hydroxy-1,1-dimethyl-ethoxy]phenyl]-1,2,4-thiadiazol-3-yl]phenoxy]-2-methyl-propan-1-ol] | 32% | * (* represents a decrease of HIF-a stabilization between 30 to 50%) |
| 0.0544 µM | – | COc1ccc(C(O)C(C)(C)Oc2ccc(-c3nsc(-c4ccc(OC(C)(C)C(O)c5ccc(OC)c(OC)c5)cc4)n3)cc2)cc1OC (single isomer, unassigned) [Compound I-44, 1-(3,4-dimethoxyphenyl)-2-[4-[5-[4-[2-(3,4-dimethoxyphenyl)-2-hydroxy-1,1-dimethyl-ethoxy]phenyl]-1,2,4-thiadiazol-3-yl]phenoxy]-2-methyl-propan-1-ol] | 45% | * (* represents a decrease of HIF-a stabilization between 30 to 50%) |
| – | > 10 µM | COc1ccc(C(O)COc2ccc(-c3noc(-c4ccc(OCC(O)c5ccc(OC)c(OC)c5)cc4)n3)cc2)cc1OC (single isomer, unassigned) [Compound I-47, 1-(3,4-dimethoxyphenyl)-2-[4-[5-[4-[2-(3,4-dimethoxyphenyl)-2-hydroxy-ethoxy]phenyl]-1,2,4-oxadiazol-3-yl]phenoxy]ethanol] | 51% | ** (** represents a decrease of HIF-a stabilization between 50 to 70%) |
| > 10 µM | – | COc1ccc(C(O)COc2ccc(-c3noc(-c4ccc(OCC(O)c5ccc(OC)c(OC)c5)cc4)n3)cc2)cc1OC (single isomer, unassigned) [Compound I-48, 1-(3,4-dimethoxyphenyl)-2-[4-[5-[4-[2-(3,4-dimethoxyphenyl)-2-hydroxy-ethoxy]phenyl]-1,2,4-oxadiazol-3-yl]phenoxy]ethanol] | 87% | *** (*** represents a decrease of HIF-a stabilization higher than 70%) |
| – | 0.435 µM | COc1ccc(C(O)C(C)(C)Oc2ccc(-c3c[nH]c(-c4ccc(OC(C)(C)C(O)c5ccc(OC)c(OC)c5)cc4)n3)cc2)cc1OC (single isomer, unassigned) [Compound I-55, 1-(3,4-dimethoxyphenyl)-2-[4-[2-[4-[2-(3,4-dimethoxyphenyl)-2-hydroxy-1,1-dimethyl-ethoxy]phenyl]-1H-imidazol-4-yl]phenoxy]-2-methyl-propan-1-ol] | 62% | ** (** represents a decrease of HIF-a stabilization between 50 to 70%) |
